Read-outs that look alike come from different tables or passages of the source. One block for each molecule: values may come before it.
Columns and labels:
[1] = test system: Scopolamine Induced amnesia; experiment: Morris Water Maze; type: in vivo, rats; details: rat, active dose p.o.
Procedure: (§1) The cognition enhancing properties of compounds of this invention were estimated by using this model.
The water maze apparatus consisted of a circular pool (1.8 m diameter, 0.6 m high) constructed in black Perspex (TSE systems, Germany) filled with water (24±2° C.) and positioned underneath a wide-angled video camera to track animal. The 10 cm^2 perspex platform, lying 1 cm below the water surface, was placed in the centre of one of the four imaginary quadrants, which remained constant for all rats. The black Perspex used in the construction of the maze and platform offered no intramaze cues to guide escape behavior. By contrast, the training room offered several strong extramaze visual cues to aid the formation of the spatial map necessary for escape learning. An automated tracking system, [Videomot 2 (5.51), TSE systems, Germany] was employed. This program analyzes video images acquired via a digital camera and an image acquisition boards that determined path length, swim speed and the number of entries and duration of swim time spent in each quadrant of the water maze.

Male Wister rats = experiment: Object Recognition Task Model; type: in vivo; details: rat; for Exploration time mean ± S.E.M, Familiar object / Exploration time mean ± S.E.M, Novel object: choice trial T2 24 h after T1
Procedure: as §1
Male Wister rats (230-280 grams) obtained from N. I. N. (National Institute of Nutrition, Hyderabad, India) was used as experimental animals. Four animals were housed in each cage. Animals were kept on 20% food deprivation before one day and given water ad libitum throughout the experiment and maintained on a 12 hours light/dark cycle. Also the rats were habituated to individual arenas for 1 hour in the absence of any objects.
One group of 12 rats received vehicle (1 mL/Kg) orally and another set of animals received compound of the formula (I) either orally or i.p., before one hour of the familiar (T1) and choice trial (T2).
The experiment was carried out in a 50×50×50 cm open field made up of acrylic. In the familiarization phase, (T1), the rats were placed individually in the open field for 3 minutes, in which two identical objects (plastic bottles, 12.5 cm height×5.5 cm diameter) covered in yellow masking tape alone (a1 and a2) were positioned in two adjacent corners, 10 cms from the walls. After 24 hours of the (T1) trial for long-term memory test, the same rats were placed in the same arena as they were placed in T1 trial. Choice phase (T2) rats were allowed to explore the open field for 3 minutes in presence of one familiar object (a3) and one novel object (b) (Amber color glass bottle, 12 cm high and 5 cm in diameter). Familiar objects presented similar textures, colors and sizes. During the T1 and T2 trial, explorations of each object (defined as sniffing, licking, chewing or having moving vibrissae whilst directing the nose towards the object at a distance of less than 1 cm) were recorded separately by stopwatch. Sitting on an object was not regarded as exploratory activity, however, it was rarely observed.
T1 is the total time spent exploring the familiar objects (a1+a2).
T2 is the total time spent exploring the familiar object and novel object (a3+b).
The object recognition test was performed as described by Ennaceur, A., Delacour, J., 1988, A new one-trial test for neurobiological studies of memory in rats—Behavioural data, Behay. Brain Res., 31, 47-59.

[2] = Rodent Brain Penetration Study; type: in vivo, Male Wister rats; details: brain / whole blood; Wistar/Male rat, Per Oral, 3 mg/kg, vehicle water; read-out: Brain Penetration Ratio (Cbrain/Cblood)
Procedure: Three animals were housed in each cage. Animals were given water and food ad libitum throughout the experiment, and maintained on a 12 hours light/dark cycle.
New chemical entity (NCE) was dissolved in suitable vehicle and administered orally (3 or 10 mg/kg). […] Blood and brain tissue were collected and brain was homogenized to yield 20% w/v. Blood was stored at 2-8° C. and brain homogenate was frozen at −20° C. until analysis. The concentrations of NCE in blood and brain were quantified using LC-MS/MS method.
Extents of brain-blood ratio were calculated (Cbrian/Cblood)

in vivo = details: male, Wistar, rat, po, 3 mg/kg
Procedure: (§2) Male Wistar rats (230-280 grams) obtained from NIN (National Institute of Nutrition, Hyderabad, India) were used as an experimental animal. Three animals were housed in each cage. Animals were kept fasted over night and maintained on a 12 hours light/dark cycle. Three rats were dosed New chemical entity (NCE) orally (3 or 10 mg/kg) and intravenously (1 or 5 mg/kg) on day 0 and day 2.
(§3) At each time point blood was collected by jugular vein. Blood was stored at 2-8° C. until analysis. The concentrations of the NCE compound in blood were determined using LC-MS/MS method. Schedule time points: Pre dose 0.08, 0.25, 0.5, 1, 2, 4, 6, 8 and 24 hours after dosing (n=3). The NCE compounds were quantified in blood by partially validated LC-MS/MS method using acetonitrile precipitation technique. […] Study samples were analyzed using calibration samples in the batch and quality control samples spread across the batch.
(§4) Pharmacokinetic parameters were calculated by non-compartmental model using software WinNonlin version 5.0.1.

[3] = male, Wistar, rat, in vivo
Procedure: as §2, §3, §4

[4] = Rodent Pharmacokinetic Study; details: male, Wistar, rat, whole blood
Procedure: as §2, §3, §4

[5] = biological target: Human or Rat Histamine H3 Receptor; experiment: Binding assay for human or rat Histamine H3 receptor ([3H] R-α-methylhistamine displacement); details: radioligand [3H] R-α-methylhistamine 3.0 nM; receptor source rat brain frontal cortex or recombinant human cDNA in CHO cells (table does not say which)
Procedure: The reaction was terminated by rapid vacuum filtration onto the glass fiber filters. Radioactivity trapped onto the filters was determined and compared to the control values in order to ascertain any interactions of the test compound(s) with either cloned human or rat receptor binding site.

Structure (SMILES): Cl.Cl.O=C(CN1CCOCC1)Nc1ccc(OC2CCN(C3CCC3)CC2)cc1 [Example 1, N-[4-(1-Cyclobutylpiperidin-4-yloxy)phenyl]-2-(morpholin-4-yl)-acetamide dihydrochloride]
Reversal of Scopolamine Induced amnesia [1]: ≦1 mg/kg, p.o.
Inference (Male Wister rats; 0.3 mg/kg p.o.): Active
Exploration time mean ± S.E.M, Familiar object (Male Wister rats; 0.3 mg/kg p.o.): 5.56 ± 0.81 s
Exploration time mean ± S.E.M, Novel object (Male Wister rats; 0.3 mg/kg p.o.): 15.36 ± 1.74 s
Kp [2]: 0.93 ± 0.05
Cmax (in vivo): 0.349 ± 0.035 µg/mL
Tmax (in vivo): 25.2 ± 8.4 min
bioavailability (in vivo): 79 ± 11%
AUCt ([3]; iv, 1 mg/kg): 0.263 ± 0.021 µg·h/mL
AUCt ([3]; po, 3 mg/kg): 0.626 ± 0.118 µg·h/mL

AUC(0-t) ([4]; iv, 1 mg/kg): 0.173 ± 0.06 µg·h/mL
half-life ([4]; iv, 1 mg/kg): 33.6 ± 11.4 min
AUC(0-t) ([4]; po, 3 mg/kg): 0.174 ± 0.043 µg·h/mL
Cmax ([4]; po, 3 mg/kg): 0.129 ± 0.034 µg/mL
Tmax ([4]; po, 3 mg/kg): 25.2 ± 8.4 min
bioavailability ([4]; po, 3 mg/kg): 35 ± 5%
half-life ([4]; po, 3 mg/kg): 87.6 ± 45 min
Ki [5]: 0.0149 µM
Kp [2]: 2.07 ± 0.07
Structure (SMILES): Cl.Cl.O=C(CN1CCOCC1)Nc1ccc(OC2CCN(C3CCC3)CC2)cc1F [Example 3, N-[4-(1-Cyclobutylpiperidin-4-yloxy)-2-fluorophenyl]-2-(morpholin-4-yl)acetamide dihydrochloride]
Inference (Male Wister rats; 3 mg/kg p.o.): Active
Exploration time mean ± S.E.M, Familiar object (Male Wister rats; 3 mg/kg p.o.): 6.77 ± 0.44 s
Exploration time mean ± S.E.M, Novel object (Male Wister rats; 3 mg/kg p.o.): 12.49 ± 1.59 s

Source: US9079888B2, “Compounds as histamine H3 receptor ligands” (Suven Life Sciences Limited, priority 2011, dated 2015)
